Experimental data reported in patent US20240148671A1, “METHODS FOR IMPROVING POULTRY HEALTH” (CORNELL UNIVERSITY, priority 2021, published 2024).
“Also recorded” adds a separate entry of the source. Where two headings read alike, the source gives them in different places. Marks after values point to notes of the source that are not given here.

Tests used:
[1] = Fe and Zn content in the serum and liver samples; format: in vivo, Gallus gallus; conditions: intra-amniotic 1 mL/egg on day 17, at hatch, mean ± SEM, n=8
Description: (§1) The pure resveratrol and pterostilbene were individually diluted in 18 MΩ H2O. The intra-amniotic administration followed the methodology previously described. On the 17th day of embryonic development, the eggs with viable embryos (n=60) were randomly allocated into 6 groups (n=10) with a similar weight frequency distribution. For the intra-amniotic treatment, 1 mL of solution per egg was injected into the amniotic fluid (via candling) with the aid of a 21-gauge needle. After the procedure, the injection sites were sealed with cellophane tape, and the eggs were distributed into six groups: (1) no injection; (2) 18 MΩ H2O; (3) 5% inulin; (4) 5% resveratrol; (5) 5% pterostilbene; and (6) synergistic: 4.75% resveratrol and 0.25% pterostilbene. […] The eggs were equally distributed in each incubator location to reduce possible allocation bias. Upon hatching (21 days), the hatchlings were euthanized by CO2 exposure, and the blood, liver, heart, pectoral muscle, small intestine and cecum were obtained.
The serum (50 μL) and liver (0.5 g) samples were mixed with 3.0 mL of a 60:40 (v/v) solution of nitric acid (HNO3) and perchloric acid (HClO4) and incubated overnight. After this, the samples were heated for 2 hours at 120° C. and added to 0.25 mL of 40 μg/g yttrium (internal standard), and the block temperature was increased to 145° C. for 2 h and then 190° C. for 10 min. At the end of these procedures, the samples were cooled, diluted to a total volume of 20 mL, mixed and transferred into autosampler tubes for analysis (inductively coupled plasma atomic emission spectrometer) (Thermo, Franklin, MA, USA).

[2] = Glycogen in pectoral muscle; format: in vivo, Gallus gallus; conditions: intra-amniotic 1 mL/egg on day 17, at hatch, mean ± SEM, n=8
Description: as §1

hemoglobin (Hb) = experiment: Blood hemoglobin (Hb) after intra-amniotic administration; format: in vivo, Gallus gallus; conditions: intra-amniotic 1 mL/egg on day 17; blood at hatch (day 21); mean ± SEM
Description: as §1
Blood was collected using micro-hematocrit heparin-coated capillary tubes (Fisher Scientific, Waltham, MA, USA). The hemoglobin (Hb) concentration was assessed spectrophotometrically using the QuantiChrom™ Hb Assay (DIHB-250, BioAssay Systems, Hayward, CA, USA) and according to specific instructions.

[3] = tested on: duodenal tissue (villi, crypts, goblet cells); experiment: Morphometric examination of duodenal tissue; format: in vivo, Gallus gallus; conditions: intra-amniotic 1 mL/egg on day 17, at hatch, mean ± SEM, n=5; for Depth of Crypts (μm) / Mucus Layer Width (μm) / Villus Diameter (μm) / Villus Length (μm): duodenum; for Crypt Goblet Cell Number / Goblet Cell Diameter (μM) / Villus Goblet Cell Type Number, Acidic / Villus Goblet Cell Type Number, Mixed / Villus Goblet Cell Type Number, Neutral: small intestine
Description: as §1
Villus epithelium analysis was conducted as previously published. The duodenal samples were soaked in buffered formaldehyde (4% (v/v)), dehydrated, cleared and embedded in paraffin. Numerous sections were cut with a thickness of 5 μm and put on slides. The sections were deparaffinized in xylene, after which they were rehydrated in a series of graded alcohol. Finally, the slides were stained with Alcian Blue-periodic acid-Schiff and investigated under a light microscopy. The variables were assessed (light microscope, EPIX XCAP software, standard version, Olympus, Waltham, MA, USA) for the following: villus length, villus diameter, depth of crypts, goblet cell diameter, crypt goblet cell number and villus goblet cells type number (acidic, neutral or mixed). Four segments for each biological sample and five biological samples per treatment group were examined. The goblet cells were enumerated at 10 villi/sample, and the means were calculated for statistical analysis.

[4] = absorption in the gut lumen, literature refs 11, 12 (Kapetanovic et al.; Walle), cited from earlier work
Liver Ferritin = experiment: Liver ferritin; format: in vivo, Gallus gallus; conditions: intra-amniotic 1 mL/egg on day 17, at hatch, mean ± SEM, n=5
Description: as §1

[5] = Body weight, cecum weight and cecum:body weight ratio; format: in vivo, Gallus gallus; conditions: intra-amniotic 1 mL/egg on day 17; at hatch (day 21); mean ± SEM, n=8
Description: as §1

cecal microbiome = experiment: 16S rRNA gene sequencing of the cecal microbiota; format: in vivo, Gallus gallus; conditions: cecal content at hatch, n=5; 5% inulin vs all other experimental groups (p<0.01); 5% pterostilbene vs 18 MΩ H2O control (p<0.05); stilbene groups among each other
Description: as §1
As was formerly described, cecal samples were used to extract microbial genomic DNA (PowerSoil DNA isolation kit, MoBio Laboratories Ltd., Carlsbad, CA, USA). […] The PCR products were purified (Beckman Coulter, Atlanta, GA, USA) and quantified (Quant-iT PicoGreen dsDNA quantitation kit, Invitrogen, Carlsbad, CA, USA). […]
The 16S rRNA gene sequence analysis was performed using QIIME2 as previously described. The sequence reads were demultiplexed by per-sample barcodes, and the Divisive Amplicon Denoising Algorithm (DADA2) was used to correct the Illumina-sequenced amplicon read errors. […] The alpha and β diversity were calculated from samples containing at least 9.800 sequences. The alpha diversity parameter, a measure of the richness of the bacterial community, was calculated using the Shannon Index, and the beta diversity was assessed by a Jaccard similarity distance matrix. […]
The values in this paper were expressed as means and standard errors of the means (SEM). […] The results were analyzed by Analysis of Variance (ANOVA). […]

Molecule | Liver Iron (μg/g) [1] | Liver Zinc (μg/g) [1] | Serum Iron (μg/g) [1] | Serum Zinc (μg/g) [1] | Glycogen (mg/g) [2] | Hb (g/dL) (hemoglobin (Hb)) | Depth of Crypts (μm) [3] | Mucus Layer Width (μm) [3] | Villus Diameter (μm) [3] | Villus Length (μm) [3] | Crypt Goblet Cell Number [3] | Goblet Cell Diameter (μM) [3] | Villus Goblet Cell Type Number, Acidic [3] | Villus Goblet Cell Type Number, Mixed [3] | Villus Goblet Cell Type Number, Neutral [3] | Liver Ferritin (A.U.) (Liver Ferritin) | Body Weight Average (g) [5] | Cecum Weight Average (g) [5] | Cecum:Body Weight Ratio [5] | other results
COc1cc(/C=C/c2ccc(O)cc2)cc(OC)c1 [5% Pterostilbene, Pterostilbene] | 37.43 ± 1.52 ^ab μg/g | 14.43 ± 0.49 ^b μg/g | 2.94 ± 0.44 ^b μg/g | 1.33 ± 0.20 ^a μg/g | 0.033 ± 0.010^a mg/g | 8.95 ± 0.77^a g/dL | 66.41 ± 1.19^a μm | 3.76 ± 0.10^e μm | 81.33 ± 4.95^a μm | 451.58 ± 11.21^b μm | 10.04 ± 0.18 ^c | 7.81 ± 0.07 ^b μM | 10.78 ± 0.22 ^ab | 0.28 ± 0.05 ^b | 0.00 ± 0.00 ^b | 1.011 ± 0.351^bc A.U. | 46.7 ± 0.7^a g | 0.6 ± 0.1^a g | 0.013 ± 0.001^a | bioavailability [4]: 80%; bioavailability ([4]; listed as pterostilbenes): about 80%
inulin [5% Inulin, reference compound] | 48.96 ± 4.39 ^a μg/g | 18.23 ± 0.88 ^ab μg/g | 2.76 ± 0.33 ^b μg/g | 0.97 ± 0.08 ^bc μg/g | 0.029 ± 0.005^a mg/g | 8.86 ± 0.69^a g/dL | 51.30 ± 1.07^b μm | 5.27 ± 0.13^c μm | 44.57 ± 0.79^d μm | 262.54 ± 3.76^d μm | 12.27 ± 0.33 ^a | 7.12 ± 0.06 ^d μM | 10.65 ± 0.25 ^ab | 0.02 ± 0.01 ^e | 0.00 ± 0.00 ^b | 0.148 ± 0.005^c A.U. | 49.7 ± 0.9^a g | 0.6 ± 0.1^a g | 0.012 ± 0.001^a | β diversity of the cecal microbiome (Jaccard distances), comparison between groups (cecal microbiome): statistical differences; also recorded: differed
